Where two headings read alike, the source gives them in different places.

A word on the AUC(0-inf): it is the area under the concentration-time curve extrapolated to infinity. Lower therefore signals less exposure. The term AUC(0-t) denotes the area under the concentration-time curve up to a stated or last time point. As a reminder, the Cmax is the maximum level reached in the sampled fluid or tissue. The term Tmax denotes the time at which the peak concentration occurs. Broadly, the half-life is the time needed for the level to fall by half in the phase considered. Low readings indicate rapid decline, high ones slow decline.

Series [1] concerns CYP3A4. Set-up: method as in PMID 16205037, PMID 30477963. Conditions: cited from earlier work.
The nature of series [2]: DDI study: pharmacokinetics of zanubrutinib in rats alone or with fluconazole / isavuconazole. Conditions: for AUC(0-inf) / AUC(0-t) / Cmax / Tmax / half-life / CL/F / MRT last / MRT inf / Vd/F: rat, plasma, po, zanubrutinib 30 mg/kg gavage, n = 6, mean ± SD; for CL/F: read-out: CLz/F (converted); for MRT last: read-out: MRT(0−t); for MRT inf: read-out: MRT(0−∞); for Vd/F: read-out: Vz/F; for time to peak: in h (unit assumed); for peak plasma concentration: in ng/mL; for area under the curve: in µg·h/L. The class given is in vivo, Sprague–Dawley (SD) rats. On the procedure: The separation procedures were processed using a Shim-pack velox C18 column (2.1 × 50 mm, 2.7 μm) at 40 degrees Celsius. The mobile phases were 0.1% formic acid-water and methanol. The gradient elution mode (each injection = 3 min) was applied as follows: the first 0-0.5 min was maintained at 10% methanol, followed by linearly increasing to 80% methanol (0.5–0.8 min) and keeping 80% methanol for 0.8–1.5 min. […] At the stage of the analysis process, the sample injection volume and flow rate were set as 2 µL and 0.4 mL/min, respectively.
Triple quadrupole mass spectrometry (Shimadzu Corp., Tokyo, Japan) was utilized for sample detection. The parameters for this procedure were set as follows: the detector voltage, heating block temperature, flow of atomizing gas, and drying gas were set as 4.5 kV, 400 °C, 3 L/min and 5 L/min, respectively. Multiple reaction monitoring (MRM) mode was performed to detect the precursor and product ions of the IS and analyte. The first and second signal strength product ions were applied to quantitation and qualification, respectively, to ensure the specificity of the detection. In addition, the retention times of the IS and analyte were also considered to further improve the detection specificity.
Eighteen SD rats were randomly split into three groups (Groups A-C). […] The same dose (0.5% CMC-Na) was administered to Group A (control group). After half an hour, each rat was treated with 30 mg/kg zanubrutinib. Thereafter, rat blood samples (0.3 mL) from the caudal vein at a series of time points (0.083, 0.5, 1, 2, 3, 4, 5, 6, 8, and 12 h) were collected in heparin tubes. The blood samples were centrifuged at 13,000 × g for 10 min at 4 °C, followed by separation of plasma and storage at -80 °C.
Prior to the experiment, the − 80 °C stored rat plasma samples were placed at room temperature for thawing. At the protein precipitation stage, 40 µL IS, 200 µL acetonitrile, and 100 µL plasma were collectively added to a 1.5 mL centrifuge tube, vortexed to mix thoroughly, and centrifuged at 12,000 × g for 10 min. Afterwards, 100 µL supernatant was transferred to a centrifuge tube and gently mixed with 100 µL ultrapure water for UHPLC–MS/MS analysis.

On the set-up of series [3]: method as in PMID 31875923. Conditions: healthy volunteers, combined with itraconazole (CYP3A4 inhibitor); cited from earlier work.
In series [4] the test system is IL-2-induced kinase (ITK). Set-up: method as in PMID 31171645. Conditions: compared to ibrutinib; cited from earlier work.
Details of series [5]: method as in PMID 31340982. The following applies: cited from earlier work.
Series [6] concerns CYP3A4. Set-up: method as in PMID 34252374. Conditions: in vitro experiments; to phenoxy phenyl hydroxylation metabolites; cited from earlier work.
In the next series the test system is BTK. Set-up: method as in PMID 31340982. Conditions: peripheral blood mononuclear cells (PBMCs) and peripheral lymph nodes in patients with B-cell lymphoma; cited from earlier work.
A short description of series [7]: Stability of zanubrutinib in rat plasma under different storage conditions. The following applies: for Stability in rat plasma, RE(%): n = 6. The class given is in vitro ADME. On the procedure: Under a series of storage conditions, each concentration of rat plasma QC samples (2, 40 and 800 ng/mL) was evaluated in 6 replicates to explore the stability of the method. This experiment determines the stabilities of the QC samples during analyses and different storage conditions. […] The testing results with RSD% (< 15%) and RE% (± 15%) were considered stable.

[8] abbreviates: Sprague-Dawley, 30 mg/kg, rats, Group A: the control group (0.5% CMC-Na).
Where [9] appears, read: Sprague-Dawley, 30 mg/kg, rats, Group B: 20 mg/kg isavuconazole.
Setting [10] is: Sprague-Dawley, 30 mg/kg, rats, Group C: 20 mg/kg fluconazole.
Where [11] appears, read: rats, zanubrutinib (30 mg/kg) alone.
The mark [12] stands for this setting: rats, zanubrutinib (30 mg/kg) coadministered with fluconazole (20 mg/kg).
Where [13] appears, read: rats, zanubrutinib (30 mg/kg) coadministered with isavuconazole (20 mg/kg).
[14] abbreviates: single administration of 320 mg.

Take `OC(Cn1cncn1)(Cn1cncn1)c1ccc(F)cc1F` [fluconazole]: the CYP3A4 inhibition entry with CYP3A4 [1] is “CYP3A4 enzyme inhibitors”.
As to `C[C@@H](c1nc(-c2ccc(C#N)cc2)cs1)[C@](O)(Cn1cncn1)c1cc(F)ccc1F` [isavuconazole], in series [2] (rats, 20 mg/kg antifungal by gavage half an hour before 30 mg/kg zanubrutinib), the “inhibitory effect on the metabolism of zanubrutinib” value is recorded as “obvious inhibitory effect”. Moreover, the CYP3A4 inhibition entry in the series on CYP3A4 [1] is “CYP3A4 enzyme inhibitors”.
In turn, `C=CC(=O)N1CCC([C@@H]2CCNc3c(C(N)=O)c(-c4ccc(Oc5ccccc5)cc4)nn32)CC1` [zanubrutinib] registered a concentration at 1 h in series [2] (Sprague-Dawley, 30 mg/kg, a rat plasma sample obtained 1 h after oral administration of zanubrutinib) of 230 ng/mL. In addition, the AUC(0-inf) in series [2] (setting [8]) came out at 1090 ± 44.2 ng·h/mL; in series [2] (setting [9]), 1270 ± 78 ng·h/mL; in series [2] (setting [10]), 1730 ± 218 ng·h/mL. For the same compound, the values for the AUC(0-t) in series [2] (setting [8]), in series [2] (setting [9]) and in series [2] (setting [10]) were 1080 ± 43.8 ng·h/mL, 1270 ng·h/mL and 1720 ± 219 ng·h/mL, respectively. Besides, the Cmax in series [2] (setting [8]) was found to be 332 ± 52.8 ng/mL; in series [2] (setting [9]) it was 396 ± 37.2 ng/mL; in series [2] (setting [10]), 495 ± 131 ng/mL. Further, the Tmax in series [2] (setting [8]) was found to be 1.83 ± 0.41 h; in series [2] (setting [9]), 2 h; in series [2] (setting [10]), 2.17 ± 0.41 h. Further, the half-life is 1.34 ± 0.11 h in series [2] (setting [8]), 1.42 ± 0.56 h in series [2] (setting [9]) and 1.37 ± 0.16 h in series [2] (setting [10]). Besides, the CL/F is 461 mL/min/kg in series [2] (setting [8]), 394 mL/min/kg in series [2] (setting [9]) and 293 mL/min/kg in series [2] (setting [10]). Moreover, the values for the MRT last in series [2] (setting [8]), in series [2] (setting [9]) and in series [2] (setting [10]) were 2.71 ± 0.1 h, 2.76 ± 0.07 h and 2.95 ± 0.14 h, respectively. The MRT inf is 2.76 ± 0.09 h in series [2] (setting [8]), 2.82 ± 0.09 h in series [2] (setting [9]) and 3 ± 0.14 h in series [2] (setting [10]). In addition, the values for the Vd/F in series [2] (setting [8]), in series [2] (setting [9]) and in series [2] (setting [10]) were 53.2 ± 3.64 L/kg, 49 ± 21.1 L/kg and 34.8 ± 6.57 L/kg, respectively. The results for the time to peak in series [2] (setting [11]), in series [2] (setting [12]) and in series [2] (setting [13]) were 1.83 ± 0.41, 2.17 ± 0.41 and 2.00 ± 0.00, respectively. For the same compound, the values for the peak plasma concentration in series [2] (setting [11]), in series [2] (setting [12]) and in series [2] (setting [13]) were 332.00 ± 52.79, 494.51 ± 130.68 and 396.05 ± 37.19, respectively. The “area under the curve” value in series [2] (setting [11]) was found to be 1081.67 ± 43.81; in series [2] (setting [12]), 1721.61 ± 219.36; in series [2] (setting [13]), 1267.55 ± 79.35. The “AUC increased to (combined with itraconazole)” value in series [3] is given as 143%. In series [3], the “Cmax increased to (combined with itraconazole)” value is reported as 154%. For the same compound, the “times lower at inhibiting IL-2-induced kinase (ITK) than ibrutinib” value in series [4] was “more than 20 times”. In addition, in series [5] (patients with malignant lymphoma, oral administration), the “time of peak concentration (Tmax)” value is recorded as “approximately 2 h”. In series [5] (setting [14]), the “mean half-life (t1/2)” value is reported as “approximately 4 h”. The “mean peak concentration (Cmax)” value in series [5] (setting [14]) is listed as 658 ng/mL. The “enzyme primarily metabolizing zanubrutinib” value in the series on CYP3A4 [6] is on record as “CYP3A4”. In the series with BTK, the “efficacy of BTK inhibition” value is listed as approximately 100%. Besides, the “Stability in rat plasma, RE(%)” value in series [7] (4 °C (24 h), 2 ng/mL) was determined as 1.3%; in series [7] (4 °C (24 h), 40 ng/mL), 1.4%; in series [7] (4 °C (24 h), 800 ng/mL) it was 1.0%; in series [7] (-80 °C (long-term), 2 ng/mL), 2.5%; in series [7] (-80 °C (long-term), 40 ng/mL) it was 1.5%; in series [7] (-80 °C (long-term), 800 ng/mL) it was 4.0%. The “Stability in rat plasma, RE(%)” value in series [7] (Room temperature (4 h), 2 ng/mL) is on record as -0.2%; in series [7] (Room temperature (4 h), 40 ng/mL), -1.4%; in series [7] (Room temperature (4 h), 800 ng/mL), -2.3%; in series [7] (Three freeze‒thaw, 2 ng/mL), -1.8%; in series [7] (Three freeze‒thaw, 40 ng/mL) it was 2.6%; in series [7] (Three freeze‒thaw, 800 ng/mL), -0.4%. Besides, the “stability in plasma under the assessed storage conditions” value in series [7] (room temperature, 4 degrees Celsius refrigeration, freeze thawing, cryopreservation for long-term) is on record as “stable”.

Source of the values: paper PMC10469817, “A novel UHPLC‒MS/MS method for quantitative analysis of zanubrutinib in rat plasma: application to an in vivo interaction study between zanubrutinib and triazole antifungal” (BMC Chemistry, 2023).
